SMILES strings stand for the structures.

In general, EC50 refers to the concentration at which the effect is half-maximal.

Holding throughout (type): cell-based
One test has as its target KCNQ2/KCNQ3 (Rattus norvegicus, UniProt O88943+O88944). The test is described as follows: whole-cell patch clamp, transfected CHO cells. The following applies: activator, −10 mV test potential, room temperature, bath pH 7.4. In general terms: The patch-clamp technique gives a direct electrical read-out from membranes.
In test [1] the target is KCNQ2 (Rattus norvegicus, UniProt O88943, R198A). Put plainly: whole-cell voltage clamp, CHO cells.
Test [2] concerns the target KCNQ2 (Rattus norvegicus, UniProt O88943). The test is described as follows: whole-cell voltage clamp, CHO cells.

Sequence of KCNQ2 (Rattus norvegicus, UniProt O88943, R198A) (O88943 whole entry R198A): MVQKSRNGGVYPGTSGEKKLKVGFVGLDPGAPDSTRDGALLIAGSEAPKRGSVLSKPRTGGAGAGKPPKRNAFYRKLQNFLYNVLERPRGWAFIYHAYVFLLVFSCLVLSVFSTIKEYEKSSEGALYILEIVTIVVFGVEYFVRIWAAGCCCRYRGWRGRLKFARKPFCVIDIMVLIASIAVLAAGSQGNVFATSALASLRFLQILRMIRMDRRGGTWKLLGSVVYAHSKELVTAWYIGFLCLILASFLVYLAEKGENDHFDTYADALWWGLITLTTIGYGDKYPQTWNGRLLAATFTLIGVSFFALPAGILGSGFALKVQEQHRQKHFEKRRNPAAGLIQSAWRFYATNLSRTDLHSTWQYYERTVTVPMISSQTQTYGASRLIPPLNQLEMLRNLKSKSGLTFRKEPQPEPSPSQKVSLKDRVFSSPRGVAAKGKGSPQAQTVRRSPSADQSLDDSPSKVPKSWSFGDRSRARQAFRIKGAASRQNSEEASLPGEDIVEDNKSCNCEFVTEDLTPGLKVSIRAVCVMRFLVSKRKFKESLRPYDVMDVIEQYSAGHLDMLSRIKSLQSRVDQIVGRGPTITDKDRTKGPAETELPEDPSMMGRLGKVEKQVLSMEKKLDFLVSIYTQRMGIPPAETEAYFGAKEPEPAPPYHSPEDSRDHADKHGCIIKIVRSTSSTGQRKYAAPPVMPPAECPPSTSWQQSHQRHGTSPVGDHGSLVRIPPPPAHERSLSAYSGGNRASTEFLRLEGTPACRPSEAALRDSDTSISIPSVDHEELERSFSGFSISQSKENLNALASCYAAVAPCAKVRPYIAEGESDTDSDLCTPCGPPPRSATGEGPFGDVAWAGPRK
Sequence of KCNQ2/KCNQ3 (O88943 whole entry): as the sequence (O88943 whole entry R198A) above, with A198R counted along it
Sequence of KCNQ2/KCNQ3 (O88944 whole entry): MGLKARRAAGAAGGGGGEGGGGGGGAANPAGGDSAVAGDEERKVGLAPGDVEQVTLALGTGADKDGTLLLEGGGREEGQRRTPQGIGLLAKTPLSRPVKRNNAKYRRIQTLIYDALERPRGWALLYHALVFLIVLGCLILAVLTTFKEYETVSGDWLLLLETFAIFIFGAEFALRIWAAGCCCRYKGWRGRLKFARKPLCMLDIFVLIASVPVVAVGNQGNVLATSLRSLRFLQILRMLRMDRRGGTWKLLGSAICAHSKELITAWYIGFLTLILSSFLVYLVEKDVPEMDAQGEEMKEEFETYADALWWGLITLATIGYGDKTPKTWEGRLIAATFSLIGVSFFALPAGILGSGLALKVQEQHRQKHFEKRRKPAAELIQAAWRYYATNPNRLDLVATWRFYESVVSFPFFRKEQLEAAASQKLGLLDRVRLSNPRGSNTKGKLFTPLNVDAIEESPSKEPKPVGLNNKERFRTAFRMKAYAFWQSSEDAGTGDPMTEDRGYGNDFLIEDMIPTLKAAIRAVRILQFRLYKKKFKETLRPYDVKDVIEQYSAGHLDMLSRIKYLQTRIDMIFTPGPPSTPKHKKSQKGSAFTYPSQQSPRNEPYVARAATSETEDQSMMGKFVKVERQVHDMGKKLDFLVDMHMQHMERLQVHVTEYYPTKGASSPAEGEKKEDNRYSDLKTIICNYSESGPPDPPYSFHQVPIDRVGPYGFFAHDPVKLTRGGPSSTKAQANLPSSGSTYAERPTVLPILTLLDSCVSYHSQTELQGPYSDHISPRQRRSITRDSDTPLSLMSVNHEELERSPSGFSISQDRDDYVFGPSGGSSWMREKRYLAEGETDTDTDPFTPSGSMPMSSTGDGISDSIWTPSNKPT
Sequence of KCNQ2 (Rattus norvegicus, UniProt O88943) (O88943 whole entry): as the sequence (O88943 whole entry R198A) above, with A198R counted along it

As for `CCc1oc2ccccc2c1C(=O)c1cc(Br)c(O)c(Br)c1` [benzbromarone], the “fold increase of outward current at 10 μM” value at KCNQ2/KCNQ3 is ~ 1.64 ± 0.08 fold. Besides, the EC50 on KCNQ2 [1] amounted to 28.2 ± 1.32 µM; at KCNQ2 [2], 4.32 ± 1.4 µM.

(Values after publication PMC4450870 (Pain, 2015).)
